{"source": "patent US20110020480A1", "about": "“USE OF BENZOXAZINOIDS-CONTAINING CEREAL GRAIN PRODUCTS FOR HEALTH-IMPROVING PURPOSES” (priority 2008, published 2011)", "origin": "cited, not measured here", "key": {"[1]": {"test_system": "human males"}, "[2]": {"conditions": "daily dose"}, "[3]": {"test_system": "overweight women"}}}
{"smiles": "COc1ccc2[nH]c(=O)oc2c1", "note": "[6-MBOA, 6-methoxy-benzoxazolin-2-one]", "values": [{"measurement": "effect on depression or mood", "setting": "[1]", "value": "significant positive effect"}, {"measurement": "therapeutic dose for treating depressive states of mind", "setting": "[2]", "value": "approx. 15 mg daily"}, {"measurement": "cumulative daily dose for obtaining appetite suppression", "setting": "[3]", "value": 15, "unit": "µg"}]}
